Assay results as given in paper PMC12862769 (ACS infectious diseases, 2025).

Key:
mouse gut microbiome = assay: Mouse gut microbiome diversity in fecal pellets; format: in vivo, C57BL/6 mice; settings: same regimens; day −1 vs day 7 (and 14)
E. faecium NR-31909 = assay: Multi-step resistance selection assay; format: cell-based; settings: after five passages

change in beta diversity (Bray-Curtis dissimilarity), pre- vs post-treatment (mouse gut microbiome)	Structure (SMILES)	MIC increase (E. faecium NR-31909)
significant change	CCC[C@@H]1C[C@@H](C(=O)N[C@@H]([C@H]2O[C@H](SC)[C@H](O)[C@@H](O)[C@H]2O)[C@H](C)Cl)N(C)C1 [clindamycin]	–
–	CO[C@H]1/C=C/O[C@@]2(C)Oc3c(C)c(O)c4c(O)c(c(/C=N/N5CCN(C)CC5)c(O)c4c3C2=O)NC(=O)/C(C)=C\C=C\[C@H](C)[C@H](O)[C@@H](C)[C@@H](O)[C@@H](C)[C@H](OC(C)=O)[C@@H]1C [rifampicin]	8 fold MIC
